# Assay results: PMC8252068, “Biochemical Investigation of the Interaction of pICln, RioK1 and COPR5 with the PRMT5–MEP50 Complex” (Chembiochem, 2021)
# Where a SMILES comes first, the peptide text is derived from it. Side-chain parts run from the residue outwards. The star is where a group is joined. FITC = O=C1OC2(c3ccc(O)cc3Oc3cc(O)ccc32)c2ccc(NC(=S)*)cc21; AEEA = NCCOCCOCC(=O)O
# Biological target: T1, native PRMT5–MEP50 complex (Homo sapiens, UniProt O14744+Q9BQA1)
# T1 construct: Full‐length PRMT5–MEP50; 6His-MBP with 3C site (N, cleaved yes); made in house; host or cells: HighFive insect cells (flashBAC baculovirus system)
# Test: Competitive fluorescence polarisation binding assay with compound 11 as tracer
# Details: competitive FP; tracer compound 11 at 1 nM, PRMT5-MEP50 600 nM, unlabelled peptide titrated two-fold; pH 8.0; 30 min, 20-21 °C; n=3
# Source text: (§1) All proteins were expressed at the Protein Chemistry Facility (PCF) based in the MPI Dortmund.
# (§2) For expression of the proteins, all constructs were subcloned into pOPIN vectors. […]
# (§3) Expression of full-length human RioK1 tagged with 6NHis-3C and co-expression of full-length human PRMT5 (N-terminal 6His-MBP with 3C) with MEP50 (N-terminal 6His-TRX with 3C), and of TIM barrel (1-292 aa) with MEP50 (both N-terminally tagged with His-TRX with 3C cleavage site) was done using the Flash Bac Expression System (Oxford Expression Technologies, UK) with HighFive insect cells in Gibco Sf-900 III SFM medium. The cells were harvested by centrifugation and lysed.
# (§4) All proteins were purified at the PCF (MPI Dortmund).
# (§5) Protein purification was performed on HisTrap FF crude 5 ml Ni-based column, followed by the on-column treatment with 6His-tagged HRV-3C PreScission protease, or in case of the SUMO-tagged TIM barrel, with 6His-tagged SUMO protease. The cleaved proteins were then further purified using gel filtration chromatography with the HiLoad 26/60 Superdex 75 or 200 prep grade column. PRMT5 -MEP50, TIM-MEP50 and TIM barrel were stored in a buffer containing 50 mM HEPES, 250 mM NaCl, 1 mM TCEP with the pH adjusted to 8.0, whereas, pICln was stored in a buffer of 20 mM phosphate, 100 mM NaCl, 5 mM TCEP and pH of 7.5, whereas RioK1 was stored in a buffer of 50 mM Tris, 200 mM NaCl, 10% glycerol, 1 […]
# (§6) Protein Labelling with Alexa 488
# (§7) To a protein solution (ca. 1 mg/ml) in 0.2 M bicarbonate buffer with 1 mM TCEP at pH 8.3, was added 10 mM Alexa 488 NHS-ester in DMSO (8 equiv), and the mixture was kept on ice, in darkness, overnight. The protein was washed eight times with buffer (50 mM HEPES, 250 mM NaCl, 1 mM TCEP, 8.0 pH) using an Amicon® Ultra-0.5 mL spin filter. Protein concentration was then determined using the NanoDrop […]
# Competitive Binding Assay
# The competitive binding assay was performed in a buffer of 50 mM HEPES, 250 mM NaCl, 1 mM TCEP, 0.01% (v/v) Tween 20, 8.0 pH, in black, 384 well-plates, with a total volume of 10 μl per well. The FITC labelled peptides were added at the final concentration of 1 nM, were mixed with PRMT5-MEP50 (at the final concentration of 600 nM), and the appropriate non-labelled peptide was titrated as two-fold dilution series. The plates were incubated at 20-21 °C for 30 min and analysed on a plate reader using 485 nm excitation and 535 nm emission wavelength. The experiment was performed in triplicates.
# T1 sequence (O14744 whole entry): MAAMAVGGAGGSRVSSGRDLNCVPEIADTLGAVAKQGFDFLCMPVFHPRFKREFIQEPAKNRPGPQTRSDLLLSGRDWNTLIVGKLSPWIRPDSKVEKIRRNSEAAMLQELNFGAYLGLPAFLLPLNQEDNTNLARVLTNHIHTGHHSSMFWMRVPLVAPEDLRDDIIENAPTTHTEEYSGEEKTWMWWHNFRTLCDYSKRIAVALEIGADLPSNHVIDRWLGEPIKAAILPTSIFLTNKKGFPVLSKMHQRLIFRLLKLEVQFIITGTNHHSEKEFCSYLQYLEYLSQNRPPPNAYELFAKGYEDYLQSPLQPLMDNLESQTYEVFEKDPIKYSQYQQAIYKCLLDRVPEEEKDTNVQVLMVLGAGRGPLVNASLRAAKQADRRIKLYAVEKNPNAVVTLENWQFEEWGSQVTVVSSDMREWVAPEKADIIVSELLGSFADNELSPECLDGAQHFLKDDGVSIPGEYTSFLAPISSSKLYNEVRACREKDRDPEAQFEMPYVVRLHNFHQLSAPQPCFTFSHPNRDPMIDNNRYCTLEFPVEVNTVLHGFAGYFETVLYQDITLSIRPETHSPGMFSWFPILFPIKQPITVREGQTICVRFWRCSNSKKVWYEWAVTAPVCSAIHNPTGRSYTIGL
# T1 sequence (Q9BQA1 whole entry partner): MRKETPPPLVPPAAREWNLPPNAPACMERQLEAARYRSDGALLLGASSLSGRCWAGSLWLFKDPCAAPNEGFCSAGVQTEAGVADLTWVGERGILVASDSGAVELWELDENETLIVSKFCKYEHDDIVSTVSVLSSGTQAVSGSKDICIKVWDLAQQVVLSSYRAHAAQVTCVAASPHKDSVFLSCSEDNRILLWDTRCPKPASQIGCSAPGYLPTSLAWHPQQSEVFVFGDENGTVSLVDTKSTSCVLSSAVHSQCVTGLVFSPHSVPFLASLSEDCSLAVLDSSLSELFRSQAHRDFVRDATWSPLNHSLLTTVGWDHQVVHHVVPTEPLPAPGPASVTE
row,IC50,Compound
1,14 ± 3.4 µM,Ac-SRVAPGQFDDAD-NH2 [compound 34]
2,3.4 ± 0.2 µM,Ac-MVFETGQFDDAED-NH2 [compound 25]
3,> 300 µM,Ac-SRVVPGAFDDAD-NH2 [compound 31]
4,2.8 ± 0.5 µM,Ac-SAVVPGQFDDAD-NH2 [compound 36]
5,14.6 ± 0.9 µM,Ac-TPTVAGQFEDAD-NH2 [compound 24]
6,0.9 ± 0.2 µM,Ac-ARVVPGQFDDAD-NH2 [compound 37]
7,6.4 ± 0.3 µM,Ac-SRVVPGQFADAD-NH2 [compound 29]
8,9.9 ± 2.2 µM,Ac-SRVVAGQFDDAD-NH2 [compound 33]
9,1.5 ± 0.4 µM,Ac-SRVVPGQFDDADSSD-NH2 [compound 23]
10,> 300 µM,Ac-SRVVPGQADDAD-NH2 [compound 30]
11,97 ± 17 µM,Ac-SRVVPGQFDAAD-NH2 [compound 28]
12,6.2 ± 2.2 µM,Ac-SRVVPGQFDDAA-NH2 [compound 27]
13,4.8 ± 0.7 µM,Ac-SRAVPGQFDDAD-NH2 [compound 35]
14,6 ± 0.7 µM,Ac-SRVVPGQFDDAD-NH2 [compound 26]
15,39 ± 8.5 µM,Ac-SRVVPAQFDDAD-NH2 [compound 32]

# Biological target: T1, native PRMT5–MEP50 complex
# Test: Fluorescence polarisation direct binding assay, full-length PRMT5–MEP50
# Details: FP using the native PRMT5–MEP50 complex; FITC peptide 1 nM; pH 8.0; 30 min, 20-21 °C; n=3; n.b. = no binding
# Source text: as §1, §2, §3, §4, §5, §6, §7
# Fluorescence Polarisation (FP)
# The assay was performed in a buffer of 50 mM HEPES, 250 mM NaCl, 1 mM TCEP, 0.01% (v/v) Tween 20, pH 8.0, in black, 384 well-plates, with a total volume of 10 μl per well. The analysed, FITC labelled peptides, or Alexa488-labelled pICln or RioK1, were tested at a final concentration of 1 nM, and the appropriate unlabelled protein was titrated as two-fold dilution series. The plates were incubated at 20-21 °C for 30 min in case of FITC -labelled peptides or 1-2h in case of the Alexa488-labelled protein, and analysed on a plate reader using 485 nm excitation and 535 nm emission wavelength. The assay was performed in […]
row,"K D (Table 2, peptides 1–16)",Compound
1,n.b.,"Fitc‐O2Oc‐TPTVAGQF‐NH2 [compound 14, C-terminally truncated pICln derived Fitc-labelled peptide]"
2,n.b.,"Fitc‐O2Oc‐SRVVPGQF‐NH2 [compound 6, C-terminally truncated RioK1 derived Fitc-labelled peptide]"
3,n.b.,"Ac‐FDDADK(O2Oc‐Fitc)‐NH2 [compound 10, N-terminally truncated, C-terminally labelled RioK1 derived peptide]"

# Same assay, conditions: FP using the native PRMT5–MEP50 complex; FITC peptide 1 nM; pH 8.0; 30 min, 20-21 °C; n=3; n.b. = no binding; read-out: K D (Table 2, peptides 1–16)
row,Kd,Compound
1,0.208 ± 0.074 µM,CC(=O)N[C@H](C(=O)N1CCC[C@H]1C(=O)NCC(=O)N[C@@H](CCC(N)=O)C(=O)N[C@@H](Cc1ccccc1)C(=O)N[C@@H](CC(=O)O)C(=O)N[C@@H](CC(=O)O)C(=O)N[C@@H](C)C(=O)N[C@@H](CC(=O)O)C(=O)N[C@@H](CCCCNC(=O)COCCOCCNC(=S)Nc1ccc2c(c1)C(=O)OC21c2ccc(O)cc2Oc2cc(O)ccc21)C(N)=O)C(C)C [compound 8] (Ac-VPGQFDDADK([AEEA-FITC])-NH2)
2,> 5 µM,CC(C)[C@H](NC(=O)[C@H](CCCNC(=N)N)NC(=O)[C@H](CO)NC(=O)COCCOCCNC(=S)Nc1ccc2c(c1)C(=O)OC21c2ccc(O)cc2Oc2cc(O)ccc21)C(=O)N[C@H](C(=O)N1CCC[C@H]1C(=O)NCC(=O)N[C@@H](CCC(N)=O)C(=O)N[C@@H](Cc1ccccc1)C(=O)N[C@@H](CC(=O)O)C(=O)N[C@@H](CC(=O)O)C(N)=O)C(C)C [compound 5] ({FITC-AEEA}-SRVVPGQFDD-NH2)
3,0.192 ± 0.026 µM,CSCC[C@H](NC(=O)[C@H](CC(C)C)NC(=O)[C@H](CC(C)C)NC(=O)COCCOCCNC(=S)Nc1ccc2c(c1)C(=O)OC21c2ccc(O)cc2Oc2cc(O)ccc21)C(=O)N[C@@H](CO)C(=O)N[C@@H](CCCNC(=N)N)C(=O)N[C@H](C(=O)N[C@H](C(=O)N1CCC[C@H]1C(=O)NCC(=O)N[C@@H](CCC(N)=O)C(=O)N[C@@H](Cc1ccccc1)C(=O)N[C@@H](CC(=O)O)C(=O)N[C@@H](CC(=O)O)C(=O)N[C@@H](C)C(=O)N[C@@H](CC(=O)O)C(N)=O)C(C)C)C(C)C [compound 12] ({FITC-AEEA}-LLMSRVVPGQFDDAD-NH2)
4,0.279 ± 0.041 µM,CSCC[C@H](NC(=O)[C@H](CC(C)C)NC(=O)[C@H](CC(C)C)NC(=O)COCCOCCNC(=S)Nc1ccc2c(c1)C(=O)OC21c2ccc(O)cc2Oc2cc(O)ccc21)C(=O)N[C@@H](CO)C(=O)N[C@@H](CCCNC(=N)N)C(=O)N[C@H](C(=O)N[C@H](C(=O)N1CCC[C@H]1C(=O)NCC(=O)N[C@@H](CCC(N)=O)C(=O)N[C@@H](Cc1ccccc1)C(=O)N[C@@H](CC(=O)O)C(=O)N[C@@H](CC(=O)O)C(=O)N[C@@H](C)C(=O)N[C@@H](CC(=O)O)C(=O)N[C@@H](CO)C(=O)N[C@@H](CO)C(=O)N[C@@H](CC(=O)O)C(N)=O)C(C)C)C(C)C [compound 13] ({FITC-AEEA}-LLMSRVVPGQFDDADSSD-NH2)
5,> 5 µM,CC(=O)NCC(=O)N[C@@H](CCC(N)=O)C(=O)N[C@@H](Cc1ccccc1)C(=O)N[C@@H](CC(=O)O)C(=O)N[C@@H](CC(=O)O)C(=O)N[C@@H](C)C(=O)N[C@@H](CC(=O)O)C(=O)N[C@@H](CCCCNC(=O)COCCOCCNC(=S)Nc1ccc2c(c1)C(=O)OC21c2ccc(O)cc2Oc2cc(O)ccc21)C(N)=O [compound 9] (Ac-GQFDDADK([AEEA-FITC])-NH2)
6,2.38 ± 0.817 µM,CC(C)[C@H](NC(=O)COCCOCCNC(=S)Nc1ccc2c(c1)C(=O)OC21c2ccc(O)cc2Oc2cc(O)ccc21)C(=O)N[C@@H](CC(=O)O)C(=O)N[C@H](C(=O)N[C@H](C(=O)N1CCC[C@H]1C(=O)N[C@H](C(=O)N[C@H](C(=O)N[C@@H](C)C(=O)NCC(=O)N[C@@H](CCC(N)=O)C(=O)N[C@@H](Cc1ccccc1)C(=O)N[C@@H](CCC(=O)O)C(=O)N[C@@H](CC(=O)O)C(=O)N[C@@H](C)C(=O)N[C@@H](CC(=O)O)C(N)=O)C(C)C)[C@@H](C)O)[C@@H](C)O)[C@@H](C)O [compound 16] ({FITC-AEEA}-VDTTPTVAGQFEDAD-NH2)
7,0.295 ± 0.011 µM,CC(C)[C@H](NC(=O)[C@H](CCCNC(=N)N)NC(=O)[C@H](CO)NC(=O)COCCOCCNC(=S)Nc1ccc2c(c1)C(=O)OC21c2ccc(O)cc2Oc2cc(O)ccc21)C(=O)N[C@H](C(=O)N1CCC[C@H]1C(=O)NCC(=O)N[C@@H](CCC(N)=O)C(=O)N[C@@H](Cc1ccccc1)C(=O)N[C@@H](CC(=O)O)C(=O)N[C@@H](CC(=O)O)C(=O)N[C@@H](C)C(=O)N[C@@H](CC(=O)O)C(=O)N[C@@H](CO)C(=O)N[C@@H](CO)C(=O)N[C@@H](CC(=O)O)C(N)=O)C(C)C [compound 11] ({FITC-AEEA}-SRVVPGQFDDADSSD-NH2)
8,0.716 ± 0.036 µM,CC(=O)N[C@@H](CO)C(=O)N[C@@H](CCCNC(=N)N)C(=O)N[C@H](C(=O)N[C@H](C(=O)N1CCC[C@H]1C(=O)NCC(=O)N[C@@H](CCC(N)=O)C(=O)N[C@@H](Cc1ccccc1)C(=O)N[C@@H](CC(=O)O)C(=O)N[C@@H](CC(=O)O)C(=O)N[C@@H](C)C(=O)N[C@@H](CC(=O)O)C(=O)N[C@@H](CCCCNC(=O)COCCOCCNC(=S)Nc1ccc2c(c1)C(=O)OC21c2ccc(O)cc2Oc2cc(O)ccc21)C(N)=O)C(C)C)C(C)C [compound 7] (Ac-SRVVPGQFDDADK([AEEA-FITC])-NH2)
9,0.52 ± 0.04 µM,CC(C)[C@H](NC(=O)[C@H](CC(=O)O)NC(=O)[C@H](C)NC(=O)[C@H](CC(=O)O)NC(=O)[C@H](CCC(=O)O)NC(=O)[C@H](Cc1ccccc1)NC(=O)[C@H](CCC(N)=O)NC(=O)CNC(=O)[C@H](C)NC(=O)[C@@H](NC(=O)[C@@H](NC(=O)[C@@H]1CCCN1C(=O)[C@@H](NC(=O)COCCOCCNC(=S)Nc1ccc2c(c1)C(=O)OC21c2ccc(O)cc2Oc2cc(O)ccc21)[C@@H](C)O)[C@@H](C)O)C(C)C)C(=O)N[C@@H](CC(=O)O)C(=O)N[C@@H](Cc1c[nH]cn1)C(N)=O [compound 15] ({FITC-AEEA}-TPTVAGQFEDADVDH-NH2)
